Experimental data as given in PubChem BioAssay AID1259407 (Chemical Carcinogenesis Research Information System (CCRIS), 2018).
Activity calls are given as the source filed them. How the calls were made is not given here.

Tested on: CCRIS mutagenicity, Ames/micronucleus/aberration tests
Assay: CCRIS mutagenicity studies
[1] = Test System: AMES SALMONELLA TYPHIMURIUM, Strain/Indicator: TA98, Metabolic Activation: NONE, Method: PREINCUBATION

Measured: mutagenic call

Nc1cc2c3ccccc3ccc2c2ccccc12
active: Test System: AMES SALMONELLA TYPHIMURIUM, Strain/Indicator: TA98 (1,8-DNP6), Metabolic Activation: RAT LIVER, MICROSOMES, AROCLOR 1254, Method: STANDARD PLATE active; positive | Test System: AMES SALMONELLA TYPHIMURIUM, Strain/Indicator: TA98, Metabolic Activation: HAMSTER, LIVER, MICROSOMES, Method: STANDARD PLATE active; positive | Test System: AMES SALMONELLA TYPHIMURIUM, Strain/Indicator: TA98, Metabolic Activation: HUMAN, LIVER, CYTOSOL, Method: STANDARD PLATE active; positive | [1] active; positive | Test System: AMES SALMONELLA TYPHIMURIUM, Strain/Indicator: TA98, Metabolic Activation: PIG, LIVER, CYTOSOL, Method: STANDARD PLATE active; positive | Test System: AMES SALMONELLA TYPHIMURIUM, Strain/Indicator: TA98, Metabolic Activation: RAT LIVER, CYTOSOL, AROCLOR 1254, Method: STANDARD PLATE active; positive | Test System: AMES SALMONELLA TYPHIMURIUM, Strain/Indicator: TA98, Metabolic Activation: RAT LIVER, MICROSOMES, AROCLOR 1254, Method: STANDARD PLATE active; positive | Test System: AMES SALMONELLA TYPHIMURIUM, Strain/Indicator: TA98, Metabolic Activation: RAT, LIVER, CYTOSOL, AROCLOR 1254, Method: STANDARD PLATE active; positive | Test System: AMES SALMONELLA TYPHIMURIUM, Strain/Indicator: TA98, Metabolic Activation: RAT, LIVER, CYTOSOL, BENZO[A]PYRENE, Method: STANDARD PLATE active; positive | Test System: AMES SALMONELLA TYPHIMURIUM, Strain/Indicator: TA98, Metabolic Activation: RAT, LIVER, CYTOSOL, CLOFIBRATE, Method: STANDARD PLATE active; positive | Test System: AMES SALMONELLA TYPHIMURIUM, Strain/Indicator: TA98, Metabolic Activation: RAT, LIVER, CYTOSOL, DEXAMETHASONE, Method: STANDARD PLATE active; positive | Test System: AMES SALMONELLA TYPHIMURIUM, Strain/Indicator: TA98, Metabolic Activation: RAT, LIVER, CYTOSOL, ISONIAZID, Method: STANDARD PLATE active; positive | Test System: AMES SALMONELLA TYPHIMURIUM, Strain/Indicator: TA98, Metabolic Activation: RAT, LIVER, CYTOSOL, PHENOBARBITAL, Method: STANDARD PLATE active; positive | Test System: AMES SALMONELLA TYPHIMURIUM, Strain/Indicator: TA98, Metabolic Activation: RAT, LIVER, MICROSOMES, AROCLOR 1254, Method: STANDARD PLATE active; positive | Test System: AMES SALMONELLA TYPHIMURIUM, Strain/Indicator: TA98, Metabolic Activation: RAT, LIVER, MICROSOMES, BENZO[A]PYRENE, Method: STANDARD PLATE active; positive | Test System: AMES SALMONELLA TYPHIMURIUM, Strain/Indicator: TA98, Metabolic Activation: RAT, LIVER, MICROSOMES, CLOFIBRATE, Method: STANDARD PLATE active; positive | Test System: AMES SALMONELLA TYPHIMURIUM, Strain/Indicator: TA98, Metabolic Activation: RAT, LIVER, MICROSOMES, DEXAMETHASONE, Method: STANDARD PLATE active; positive | Test System: AMES SALMONELLA TYPHIMURIUM, Strain/Indicator: TA98, Metabolic Activation: RAT, LIVER, MICROSOMES, ISONIAZID, Method: STANDARD PLATE active; positive | Test System: AMES SALMONELLA TYPHIMURIUM, Strain/Indicator: TA98, Metabolic Activation: RAT, LIVER, MICROSOMES, PHENOBARBITAL, Method: STANDARD PLATE active; positive | Test System: AMES SALMONELLA TYPHIMURIUM, Strain/Indicator: TA98, Metabolic Activation: RAT, LIVER, MICROSOMES, Method: STANDARD PLATE active; positive | Test System: AMES SALMONELLA TYPHIMURIUM, Strain/Indicator: TA98, Metabolic Activation: RAT, LIVER, S-9, AROCLOR 1254, Method: PREINCUBATION active; positive | Test System: AMES SALMONELLA TYPHIMURIUM, Strain/Indicator: TA100, Metabolic Activation: NONE, Method: PREINCUBATION active; positive | Test System: AMES SALMONELLA TYPHIMURIUM, Strain/Indicator: TA100, Metabolic Activation: RAT, LIVER, MICROSOMES, AROCLOR 1254, Method: STANDARD PLATE active; positive | Test System: AMES SALMONELLA TYPHIMURIUM, Strain/Indicator: TA100, Metabolic Activation: RAT, LIVER, MICROSOMES, Method: STANDARD PLATE active; positive | Test System: AMES SALMONELLA TYPHIMURIUM, Strain/Indicator: TA100, Metabolic Activation: RAT, LIVER, S-9, AROCLOR 1254, Method: PREINCUBATION active; positive | Test System: AMES SALMONELLA TYPHIMURIUM, Strain/Indicator: TA100, Metabolic Activation: RAT, LIVER, S-9, AROCLOR 1254, Method: STANDARD PLATE active; positive | Test System: CHINESE HAMSTER OVARY, Strain/Indicator: CHO-K1-BH4 (HGPRT)/6-THIOGUANINE, Metabolic Activation: RAT, LIVER, S-9, AROCLOR 1254, Method: STANDARD PLATE active; positive | Test System: CHINESE HAMSTER OVARY, Strain/Indicator: CHO-UV5 (HGPRT)/6-THIOGUANINE, Metabolic Activation: RAT, LIVER, S-9, AROCLOR 1254, Method: STANDARD PLATE active; positive | Test System: UDS GUINEA PIG HEPATOCYTES, Strain/Indicator: THY INCORP, Metabolic Activation: NONE, Method: AUTORADIOGRAPHY active; positive | Test System: UDS HUMAN HEPATOCYTES, Strain/Indicator: THY INCORP, Metabolic Activation: NONE, Method: AUTORADIOGRAPHY active; positive | Test System: UDS MONKEY HEPATOCYTES, Strain/Indicator: THY INCORP, Metabolic Activation: NONE, Method: AUTORADIOGRAPHY active; positive | Test System: UDS RAT HEPATOCYTES, Strain/Indicator: THY INCORP, Metabolic Activation: AROCLOR 1254, Method: AUTORADIOGRAPHY active; positive | Test System: UDS RAT HEPATOCYTES, Strain/Indicator: THY INCORP, Metabolic Activation: NONE, Method: AUTORADIOGRAPHY active; positive
inactive: Test System: AMES SALMONELLA TYPHIMURIUM, Strain/Indicator: TA98 (1,8-DNP6), Metabolic Activation: RAT LIVER, CYTOSOL, AROCLOR 1254, Method: STANDARD PLATE inactive; negative | Test System: AMES SALMONELLA TYPHIMURIUM, Strain/Indicator: TA98, Metabolic Activation: FERRET, LIVER, CYTOSOL, Method: STANDARD PLATE inactive; negative | Test System: AMES SALMONELLA TYPHIMURIUM, Strain/Indicator: TA98, Metabolic Activation: FERRET, LIVER, MICROSOMES, Method: STANDARD PLATE inactive; negative | Test System: AMES SALMONELLA TYPHIMURIUM, Strain/Indicator: TA98, Metabolic Activation: HAMSTER, LIVER, CYTOSOL, Method: STANDARD PLATE inactive; negative | Test System: AMES SALMONELLA TYPHIMURIUM, Strain/Indicator: TA98, Metabolic Activation: PIG, LIVER, MICROSOMES, Method: STANDARD PLATE inactive; negative | Test System: AMES SALMONELLA TYPHIMURIUM, Strain/Indicator: TA100, Metabolic Activation: NONE, Method: STANDARD PLATE inactive; negative | Test System: AMES SALMONELLA TYPHIMURIUM, Strain/Indicator: TA100, Metabolic Activation: RAT, LIVER, MICROSOMES, 6-AMINOCHRYSENE, Method: STANDARD PLATE inactive; negative | Test System: AMES SALMONELLA TYPHIMURIUM, Strain/Indicator: TA1535, Metabolic Activation: NONE, Method: STANDARD PLATE inactive; negative | Test System: AMES SALMONELLA TYPHIMURIUM, Strain/Indicator: TA1535, Metabolic Activation: RAT, LIVER, S-9, AROCLOR 1254, Method: STANDARD PLATE inactive; negative | Test System: AMES SALMONELLA TYPHIMURIUM, Strain/Indicator: TA1537, Metabolic Activation: NONE, Method: STANDARD PLATE inactive; negative | Test System: AMES SALMONELLA TYPHIMURIUM, Strain/Indicator: TA1538, Metabolic Activation: NONE, Method: STANDARD PLATE inactive; negative | Test System: CHINESE HAMSTER OVARY, Strain/Indicator: CHO-K1-BH4 (HGPRT)/6-THIOGUANINE, Metabolic Activation: NONE, Method: STANDARD PLATE inactive; negative | Test System: CHINESE HAMSTER OVARY, Strain/Indicator: CHO-UV5 (HGPRT)/6-THIOGUANINE, Metabolic Activation: NONE, Method: STANDARD PLATE inactive; negative

Cc1cccc2c([N+](=O)[O-])cccc12
active: [1] active; positive
